The source made the active and inactive calls. No cut-off for these calls is given here.
Columns and labels:
Format in all cases: nucleic-acid assay
[1] = tested on: Nucleic Acid; assay: Binding affinity to 3'-r(CUUCCAGUUCCAUAGAGA)-5' RNA assessed as fluorescence quenching by spectrophotometry
[2] = tested on: Nucleic Acid; assay: Binding affinity to 3'-r(CUUCCAGUUGCAUAGAGA)-5' RNA assessed as fluorescence quenching by spectrophotometry
[3] = tested on: Nucleic Acid; assay: Binding affinity to 3'-r(CUUCCAGUUCCAUAGAGA)-5' RNA assessed as change in melting temperature by spectrophotometry
[4] = tested on: Nucleic Acid; assay: Binding affinity to 3'-r(CUUCCAGUUGCAUAGAGA)-5' RNA assessed as change in melting temperature by spectrophotometry
[5] = tested on: Nucleic Acid; assay: Binding affinity to 3'-r(CUUCCAGUUUCAUAGAGA)-5' RNA assessed as fluorescence quenching by spectrophotometry
[6] = tested on: Nucleic Acid; assay: Binding affinity to 3'-r(CUUCCAGUUACAUAGAGA)-5' RNA assessed as change in melting temperature by spectrophotometry
[7] = tested on: Nucleic Acid; assay: Binding affinity to 3'-r(CUUCCAGUUUCAUAGAGA)-5' RNA assessed as change in melting temperature by spectrophotometry
[8] = tested on: Nucleic Acid; assay: Binding affinity to 3'-r(CUUCCAGUUACAUAGAGA)-5' RNA assessed as fluorescence quenching by spectrophotometry

| Activity [1] | Activity [2] | ΔTm [3] [°C] | ΔTm [4] [°C] | Activity [5] | ΔTm [6] [°C] | Activity [7] | Activity [8] | Activity [4] | ΔTm [7] [°C] | Activity [3] | SMILES |
| --- | --- | --- | --- | --- | --- | --- | --- | --- | --- | --- | --- |
| Active | Active | -2 | -2.1 | inactive | -2.3 | inactive | Active |  |  |  | Cc1cn([C@H]2C[C@H](OP(=O)(O)OC[C@H]3O[C@@H](n4ccc(N)nc4=O)C[C@@H]3OP(=O)(O)OC[C@H]3O[C@@H](n4cnc5c(N)ncnc54)C[C@@H]3OP(=O)(O)OC[C@H]3O[C@@H](n4cnc5c(N)ncnc54)C[C@@H]3OP(=O)(O)OC[C@H]3O[C@@H](n4cnc5c(N)ncnc54)C[C@@H]3OP(=O)(O)OC[C@H](Cn3cnc4cc5c(N)nc(N)nc5nc43)OP(=O)(O)OC[C@H]3O[C@@H](n4cnc5c(=O)[nH]c(N)nc54)C[C@@H]3OP(=O)(O)CC[C@H]3O[C@@H](n4cc(C)c(=O)[nH]c4=O)C[C@@H]3OP(=O)(O)OC[C@H]3O[C@@H](n4cnc5c(N)ncnc54)C[C@@H]3OP(=O)(O)OC[C@H]3O[C@@H](n4cc(C)c(=O)[nH]c4=O)C[C@@H]3OP(=O)(O)OC[C@H]3O[C@@H](n4ccc(N)nc4=O)C[C@@H]3OP(=O)(O)OC[C@H]3O[C@@H](n4cc(C)c(=O)[nH]c4=O)C[C@@H]3OP(=O)(O)OC[C@H]3O[C@@H](n4ccc(N)nc4=O)C[C@@H]3OP(=O)(O)OC[C@H]3O[C@@H](n4cc(C)c(=O)[nH]c4=O)C[C@@H]3O)[C@@H](COP(=O)(O)O[C@H]3C[C@H](n4cnc5c(=O)[nH]c(N)nc54)O[C@@H]3COP(=O)(O)O[C@H]3C[C@H](n4cnc5c(=O)[nH]c(N)nc54)O[C@@H]3COP(=O)(O)O[C@H]3C[C@H](n4cnc5c(N)ncnc54)O[C@@H]3COP(=O)(O)O[C@H]3C[C@H](n4cnc5c(N)ncnc54)O[C@@H]3COP(=O)(O)O[C@H]3C[C@H](n4cnc5c(=O)[nH]c(N)nc54)O[C@@H]3CO)O2)c(=O)nc1N |
| Active | Active | -3.4 | -2.9 | inactive | -3.5 | inactive | Active |  |  |  | Cc1cn([C@H]2C[C@H](OP(=O)(O)OC[C@H]3O[C@@H](n4ccc(N)nc4=O)C[C@@H]3OP(=O)(O)OC[C@H]3O[C@@H](n4cnc5c(N)ncnc54)C[C@@H]3OP(=O)(O)OC[C@H]3O[C@@H](n4cnc5c(N)ncnc54)C[C@@H]3OP(=O)(O)OC[C@H](Cn3cnc4cc5c(N)nc(N)nc5nc43)OP(=O)(O)OC[C@H]3O[C@@H](n4cnc5c(N)ncnc54)C[C@@H]3OP(=O)(O)OC[C@H]3O[C@@H](n4cnc5c(=O)[nH]c(N)nc54)C[C@@H]3OP(=O)(O)CC[C@H]3O[C@@H](n4cc(C)c(=O)[nH]c4=O)C[C@@H]3OP(=O)(O)OC[C@H]3O[C@@H](n4cnc5c(N)ncnc54)C[C@@H]3OP(=O)(O)OC[C@H]3O[C@@H](n4cc(C)c(=O)[nH]c4=O)C[C@@H]3OP(=O)(O)OC[C@H]3O[C@@H](n4ccc(N)nc4=O)C[C@@H]3OP(=O)(O)OC[C@H]3O[C@@H](n4cc(C)c(=O)[nH]c4=O)C[C@@H]3OP(=O)(O)OC[C@H]3O[C@@H](n4ccc(N)nc4=O)C[C@@H]3OP(=O)(O)OC[C@H]3O[C@@H](n4cc(C)c(=O)[nH]c4=O)C[C@@H]3O)[C@@H](COP(=O)(O)O[C@H]3C[C@H](n4cnc5c(=O)[nH]c(N)nc54)O[C@@H]3COP(=O)(O)O[C@H]3C[C@H](n4cnc5c(=O)[nH]c(N)nc54)O[C@@H]3COP(=O)(O)O[C@H]3C[C@H](n4cnc5c(N)ncnc54)O[C@@H]3COP(=O)(O)O[C@H]3C[C@H](n4cnc5c(N)ncnc54)O[C@@H]3COP(=O)(O)O[C@H]3C[C@H](n4cnc5c(=O)[nH]c(N)nc54)O[C@@H]3CO)O2)c(=O)nc1N |
| Active | inactive | -6.5 |  | Active | -6 |  | Active | inactive | -5.4 |  | Cc1cn([C@H]2C[C@H](OP(=O)(O)OC[C@H]3O[C@@H](n4ccc(N)nc4=O)C[C@@H]3OP(=O)(O)OC[C@H]3O[C@@H](n4cnc5c(N)ncnc54)C[C@@H]3OP(=O)(O)OC[C@H]3O[C@@H](n4cnc5c(N)ncnc54)C[C@@H]3OP(=O)(O)OC[C@H](Cn3cnc4cc5c(N)nc(N)nc5nc43)OP(=O)(O)OC[C@H]3O[C@@H](n4ccc(N)nc4=O)C[C@@H]3OP(=O)(O)OC[C@H]3O[C@@H](n4cnc5c(=O)[nH]c(N)nc54)C[C@@H]3OP(=O)(O)CC[C@H]3O[C@@H](n4cc(C)c(=O)[nH]c4=O)C[C@@H]3OP(=O)(O)OC[C@H]3O[C@@H](n4cnc5c(N)ncnc54)C[C@@H]3OP(=O)(O)OC[C@H]3O[C@@H](n4cc(C)c(=O)[nH]c4=O)C[C@@H]3OP(=O)(O)OC[C@H]3O[C@@H](n4ccc(N)nc4=O)C[C@@H]3OP(=O)(O)OC[C@H]3O[C@@H](n4cc(C)c(=O)[nH]c4=O)C[C@@H]3OP(=O)(O)OC[C@H]3O[C@@H](n4ccc(N)nc4=O)C[C@@H]3OP(=O)(O)OC[C@H]3O[C@@H](n4cc(C)c(=O)[nH]c4=O)C[C@@H]3O)[C@@H](COP(=O)(O)O[C@H]3C[C@H](n4cnc5c(=O)[nH]c(N)nc54)O[C@@H]3COP(=O)(O)O[C@H]3C[C@H](n4cnc5c(=O)[nH]c(N)nc54)O[C@@H]3COP(=O)(O)O[C@H]3C[C@H](n4cnc5c(N)ncnc54)O[C@@H]3COP(=O)(O)O[C@H]3C[C@H](n4cnc5c(N)ncnc54)O[C@@H]3COP(=O)(O)O[C@H]3C[C@H](n4cnc5c(=O)[nH]c(N)nc54)O[C@@H]3CO)O2)c(=O)nc1N |
| inactive | Active |  | -3 | Active | -3.1 |  | Active |  | -2.9 | inactive | Cc1cn([C@H]2C[C@H](OP(=O)(O)OC[C@H]3O[C@@H](n4ccc(N)nc4=O)C[C@@H]3OP(=O)(O)OC[C@H]3O[C@@H](n4cnc5c(N)ncnc54)C[C@@H]3OP(=O)(O)OC[C@H]3O[C@@H](n4cnc5c(N)ncnc54)C[C@@H]3OP(=O)(O)OC[C@H]3O[C@@H](n4cnc5c(=O)[nH]c(N)nc54)C[C@@H]3OP(=O)(O)OC[C@H](Cn3cnc4cc5c(N)nc(N)nc5nc43)OP(=O)(O)OC[C@H]3O[C@@H](n4cnc5c(=O)[nH]c(N)nc54)C[C@@H]3OP(=O)(O)CC[C@H]3O[C@@H](n4cc(C)c(=O)[nH]c4=O)C[C@@H]3OP(=O)(O)OC[C@H]3O[C@@H](n4cnc5c(N)ncnc54)C[C@@H]3OP(=O)(O)OC[C@H]3O[C@@H](n4cc(C)c(=O)[nH]c4=O)C[C@@H]3OP(=O)(O)OC[C@H]3O[C@@H](n4ccc(N)nc4=O)C[C@@H]3OP(=O)(O)OC[C@H]3O[C@@H](n4cc(C)c(=O)[nH]c4=O)C[C@@H]3OP(=O)(O)OC[C@H]3O[C@@H](n4ccc(N)nc4=O)C[C@@H]3OP(=O)(O)OC[C@H]3O[C@@H](n4cc(C)c(=O)[nH]c4=O)C[C@@H]3O)[C@@H](COP(=O)(O)O[C@H]3C[C@H](n4cnc5c(=O)[nH]c(N)nc54)O[C@@H]3COP(=O)(O)O[C@H]3C[C@H](n4cnc5c(=O)[nH]c(N)nc54)O[C@@H]3COP(=O)(O)O[C@H]3C[C@H](n4cnc5c(N)ncnc54)O[C@@H]3COP(=O)(O)O[C@H]3C[C@H](n4cnc5c(N)ncnc54)O[C@@H]3COP(=O)(O)O[C@H]3C[C@H](n4cnc5c(=O)[nH]c(N)nc54)O[C@@H]3CO)O2)c(=O)nc1N |

From ChEMBL document CHEMBL1944514, “Fluorescence detection of single nucleotide polymorphisms using nucleic acid probe containing tricyclic base-linked acyclonucleoside” (Bioorg Med Chem Lett, 2012)
